From patent US20240400561A1, “NOVEL SUBSTITUTED SULFONYLUREA COMPOUNDS AS INHIBITORS OF INTERLEUKIN-1 ACTIVITY” (Viva Star Biosciences (Suzhou) Co., Ltd., priority 2021, published 2024)

These compounds were tested against T1, NLRP3 (Homo sapiens, UniProt Q96P20) (assay: THP-1 cell assay (LPS priming, nigericin), IL1β release by HTRF; called pyroptosis assay, THP IC50). Details: NLRP3 inhibitory activity; THP-1 cells, 1.0 ug/mL LPS, compound 3 hrs, nigericin 5 uM 1 hr, IL1β in supernatant.
T1 construct: Seed THP-1 cells (5.56*10^5 cells/mL) containing 1.0 ug/mL LPS; endogenous in cells; host or cells: THP-1 cells
T1 sequence (Q96P20 whole entry): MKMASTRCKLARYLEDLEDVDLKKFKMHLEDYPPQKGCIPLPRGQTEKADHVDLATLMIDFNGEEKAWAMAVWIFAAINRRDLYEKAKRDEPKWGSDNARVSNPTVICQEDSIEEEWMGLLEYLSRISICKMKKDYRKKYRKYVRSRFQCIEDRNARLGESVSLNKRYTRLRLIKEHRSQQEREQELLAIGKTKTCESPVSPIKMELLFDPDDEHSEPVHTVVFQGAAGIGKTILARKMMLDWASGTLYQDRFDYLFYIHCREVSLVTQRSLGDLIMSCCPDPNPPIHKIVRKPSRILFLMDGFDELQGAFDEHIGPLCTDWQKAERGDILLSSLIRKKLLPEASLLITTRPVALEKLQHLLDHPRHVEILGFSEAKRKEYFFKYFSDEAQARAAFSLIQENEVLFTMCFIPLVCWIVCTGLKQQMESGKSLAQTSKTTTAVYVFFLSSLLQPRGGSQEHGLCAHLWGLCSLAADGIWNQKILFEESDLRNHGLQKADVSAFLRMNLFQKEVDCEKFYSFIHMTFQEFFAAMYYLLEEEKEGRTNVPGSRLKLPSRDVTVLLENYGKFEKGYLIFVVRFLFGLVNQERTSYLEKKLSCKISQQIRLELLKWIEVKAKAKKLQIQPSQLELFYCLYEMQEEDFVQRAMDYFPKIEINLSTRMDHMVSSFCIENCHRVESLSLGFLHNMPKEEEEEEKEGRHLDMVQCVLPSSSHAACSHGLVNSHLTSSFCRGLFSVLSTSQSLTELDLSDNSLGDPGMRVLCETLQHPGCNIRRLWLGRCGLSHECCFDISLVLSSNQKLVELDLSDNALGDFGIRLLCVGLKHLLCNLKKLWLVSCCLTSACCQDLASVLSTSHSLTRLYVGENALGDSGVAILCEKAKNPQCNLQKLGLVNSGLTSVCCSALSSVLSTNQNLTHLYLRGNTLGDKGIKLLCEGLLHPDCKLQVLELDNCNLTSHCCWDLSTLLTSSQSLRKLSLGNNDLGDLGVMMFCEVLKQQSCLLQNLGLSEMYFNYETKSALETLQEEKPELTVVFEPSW
Type: cell-based
Summary of the method: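 THP-1 cells were primed with 1.0 ug/mL LPS in serum-free RPMI 1640 alongside compound (10 doses from 5 uM, 1:3) for 3 h at 37° C. Nigericin (final 5 uM) was then added for 1 h. Supernatant IL1β was quantified by HTRF against a standard curve, with IC50 from a four-parameter fit.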

`Cc1cc2c(c(NC(=O)NS(=O)(=O)c3cc(OC4CC4)cnn3)c1-c1ccn3nccc3c1)CCC2` [Example 81, 5-cyclopropoxy-N-((6-methyl-5-(pyrazolo[1,5-a]pyridin-5-yl)-2,3-dihydro-1H-inden-4-yl)carbamoyl)-1H-pyridazine-3-sulfonamide] and `Cc1cc2c(c(NC(=O)NS(=O)(=O)c3cncc(C4CCC4)c3)c1-c1ccn3nccc3c1)CCC2` [Example 84, 5-cyclobutyl-N-((6-methyl-5-(pyrazolo[1,5-a]pyridin-5-yl)-2,3-dihydro-1H-inden-4-yl)carbamoyl)pyridine-3-sulfonamide] cannot be ordered by IC50: at most 30 nM for the first, at most 30 nM for the second.

Compared with `Cc1cc2c(c(NC(=O)NS(=O)(=O)c3ccn(C(C)C4CC4)n3)c1-c1ccn3nccc3c1)CCC2` (stereo not shown) [Example 82, 1-(1-cyclopropylethyl)-N-((6-methyl-5-(pyrazolo[1,5-a]pyridin-5-yl)-2,3-dihydro-1H-inden-4-yl)carbamoyl)-1H-pyrazole-3-sulfonamide], `Cc1cc2c(c(NC(=O)NS(=O)(=O)c3ccn(C[C@@H]4CCO4)n3)c1-c1ccn3nccc3c1)CCC2` [Example 91, (S)—N-((6-methyl-5-(pyrazolo[1,5-a]pyridin-5-yl)-2,3-dihydro-1H-inden-4-yl)carbamoyl)-1-(oxetan-2-ylmethyl)-1H-pyrazole-3-sulfonamide] is lower in IC50: 300 to 1000 nM for the first, at most 30 nM for the second.

First: Cc1cc2c(c(NC(=O)NS(=O)(=O)c3ccn(C4CC4)n3)c1-c1ccn3nccc3c1)OCC2 [Example 83, 1-cyclopropyl-N-((5-methyl-6-(pyrazolo[1,5-a]pyridin-5-yl)-2,3-dihydrobenzofuran-7-yl)carbamoyl)-1H-pyrazole-3-sulfonamide]
Second: O=C(Nc1c2c(cc(F)c1-c1ccn3nccc3c1)CCO2)NS(=O)(=O)c1ccn(C2CC2)n1 [Example 87, 1-cyclopropyl-N-((5-fluoro-6-(pyrazolo[1,5-a]pyridin-5-yl)-2,3-dihydrobenzofuran-7-yl)carbamoyl) 1H-pyrazole-3-sulfonamide]
The IC50 of the first is lower: 30 to 300 nM for the first, 300 to 1000 nM for the second. The first is the more potent here.

`Cc1cc2c(c(NC(=O)NS(=O)(=O)c3ccn(CC4CC4)n3)c1-c1ccn3nccc3c1)OCC2` [Example 86, 1-(cyclopropylmethyl)-N-((5-methyl-6-(pyrazolo[1,5-a]pyridin-5-yl)-2,3-dihydrobenzofuran-7-yl)carbamoyl)-1H-pyrazole-3-sulfonamide] and `Cc1cc2c(c(NC(=O)NS(=O)(=O)c3ccn(C[C@@H]4CCO4)n3)c1-c1ccc3ccnn3c1)CCC2` [Example 95, (S)—N-((6-methyl-5-(pyrazolo[1,5-a]pyridin-6-yl)-2,3-dihydro-1H-inden-4-yl)carbamoyl)-1-(oxetan-2-ylmethyl)-1H-pyrazole-3-sulfonamide] fall in the same range of IC50: 30 to 300 nM for the first, 30 to 300 nM for the second.

`Cc1cc2cc(-c3c(C)cc4c(c3NC(=O)NS(=O)(=O)c3ccn(C5CC5)n3)CCC4)ccn2n1` [Example 88, 1-cyclopropyl-N-((6-methyl-5-(2-methylpyrazolo[1,5-a]pyridin-5-yl)-2,3-dihydro-1H-inden-4-yl)carbamoyl)-1H-pyrazole-3-sulfonamide] and `Cc1cc2c(c(NC(=O)NS(=O)(=O)c3ccn(C4CC4)n3)c1-c1ccn3cnnc3c1)CCC2` [Example 93, N-((5-([1,2,4]triazolo[4,3-a]pyridin-7-yl)-6-methyl-2,3-dihydro-1H-inden-4-yl)carbamoyl)-1-cyclopropyl-pyrazole-3-sulfonamide] cannot be ordered by IC50: at most 30 nM for the first, at most 30 nM for the second.

`O=C(Nc1c2c(cc(Cl)c1-c1ccn3nccc3c1)CCC2)NS(=O)(=O)c1ccn(C2CC2)n1` [Example 89, N-((6-chloro-5-(pyrazolo[1,5-a]pyridin-5-yl)-2,3-dihydro-1H-inden-4-yl)carbamoyl)-1-cyclopropyl-1H-pyrazole-3-sulfonamide] and `O=C(Nc1c2c(cc(CO)c1-c1ccn3nccc3c1)CCC2)NS(=O)(=O)c1ccn(C2CC2)n1` [Example 98, 1-cyclopropyl-N-((6-(hydroxymethyl)-5-(pyrazolo[1,5-a]pyridin-5-yl)-2,3-dihydro-1H-inden-4-yl)carbamoyl)-1H-pyrazole-3-sulfonamide] cannot be ordered by IC50: at most 30 nM for the first, 30 to 300 nM for the second.

`Cc1cc2c(c(NC(=O)NS(=O)(=O)c3ccn(C4CC4)n3)c1-c1ccc3ccnn3c1)CCC2` [Example 92, 1-cyclopropyl-N-((6-methyl-5-(pyrazolo[1,5-a]pyridin-6-yl)-2,3-dihydro-1H-inden-4-yl)carbamoyl)-1H-pyrazole-3-sulfonamide] and `Cc1cc2c(c(NC(=O)NS(=O)(=O)c3ccn(C4CC4)n3)c1-c1ccc3ncnn3c1)CCC2` [Example 97, N-((5-([1,2,4]triazolo[1,5-a]pyridin-6-yl)-6-methyl-2,3-dihydro-1H-inden-4-yl)carbamoyl)-1-cyclopropyl-1H-pyrazole-3-sulfonamide] cannot be ordered by IC50: 30 to 300 nM for the first, at most 30 nM for the second.

`Cc1cc2c(c(NC(=O)NS(=O)(=O)c3ccn(C[C@@H]4CCO4)n3)c1-c1ccn3ncnc3c1)CCC2` [Example 94, (S)—N-((5-([1,2,4]triazolo[1,5-a]pyridin-7-yl)-6-methyl-2,3-dihydro-1H-inden-4-yl)carbamoyl)-1-(oxetan-2-ylmethyl)-1H-pyrazole-3-sulfonamide] and `O=C(Nc1c2c(cc(Cl)c1-c1ccn3cnnc3c1)CCC2)NS(=O)(=O)c1ccn(C2CC2)n1` [Example 96, N-((5-([1,2,4]triazolo[4,3-a]pyridin-7-yl)-6-chloro-2,3-dihydro-1H-inden-4-yl)carbamoyl)-1-cyclopropyl-1H-pyrazole-3-sulfonamide] cannot be ordered by IC50: 30 to 300 nM for the first, at most 30 nM for the second.
